Results reported in PMC10893631, “Receptor-based pharmacophore modeling, molecular docking, synthesis and biological evaluation of novel VEGFR-2, FGFR-1, and BRAF multi-kinase inhibitors” (BMC Chemistry, 2024).

Legend:
Assay in all cases: NCI SRB growth inhibition (single dose 10 µM / five-dose)
Type in all cases: cell-based, human
MDA-MB-468 = settings: Homo sapiens; for inhibition at 10 µM: MDA-MB-468 (Breast cancer), read-out: GI%; for GI50: MDA-MB-468, Breast cancer, five-dose
Method in brief: (§1)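 SRB read-out. Plating density 5000–40,000 cells/well; Tz fixed at 24 h; 5 conc. (10-fold or ½ log) + control; TCA fix, 0.4% SRB/1% AcOH 10 min RT; % growth = (Ti−Tz)/(C−Tz)×100, or (Ti−Tz)/Tz×100 when Ti<Tz.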

NCI-H522 = settings: Homo sapiens; for inhibition at 10 µM: NCI-H522 (Non-small cell lung cancer), read-out: GI%; for GI50: NCI-H522, Non-small cell lung cancer, five-dose
Method in brief: as §1

BT-549 = settings: Homo sapiens; for inhibition at 10 µM: BT-549 (Breast cancer), read-out: GI%; for GI50: BT-549, Breast cancer, five-dose
Method in brief: as §1

IGROV1 = settings: Homo sapiens, IGROV-1; for inhibition at 10 µM: IGROV1 (Ovarian cancer), read-out: GI%; for GI50: IGROV1, Ovarian cancer, five-dose
Method in brief: as §1

HT29 = settings: Homo sapiens, HT-29; for inhibition at 10 µM: HT29 (Colon cancer), read-out: GI%; for GI50: HT29, Colon cancer, five-dose
Method in brief: as §1

KM12 = settings: Homo sapiens; for inhibition at 10 µM: KM12 (Colon cancer), read-out: GI%; for GI50: KM12, Colon cancer, five-dose
Method in brief: as §1

SNB-19 = settings: Homo sapiens; for inhibition at 10 µM: SNB-19 (CNS cancer), read-out: GI%; for GI50: SNB-19, CNS cancer, five-dose
Method in brief: as §1

UACC-257 = settings: Homo sapiens; for inhibition at 10 µM: UACC-257 (Melanoma), read-out: GI%; for GI50: UACC-257, Melanoma, five-dose
Method in brief: as §1

NCI-H23 = settings: Homo sapiens; for inhibition at 10 µM: NCI-H23 (Non-small cell lung cancer), read-out: GI%; for GI50: NCI-H23, Non-small cell lung cancer, five-dose
Method in brief: as §1

SF-268 = settings: Homo sapiens; for inhibition at 10 µM: SF-268 (CNS cancer), read-out: GI%; for GI50: SF-268, CNS cancer, five-dose
Method in brief: as §1

NCI-H226 = settings: Homo sapiens; for inhibition at 10 µM: NCI-H226 (Non-small cell lung cancer), read-out: GI%; for GI50: NCI-H226, Non-small cell lung cancer, five-dose
Method in brief: as §1

MDA-MB-231/ATCC = settings: Homo sapiens; for inhibition at 10 µM: MDA-MB-231/ATCC (Breast cancer), read-out: GI%; for GI50: MDA-MB-231/ATCC, Breast cancer, five-dose
Method in brief: as §1

K-562 = settings: Homo sapiens, K562; for inhibition at 10 µM: K-562 (Leukemia), read-out: GI%; for GI50: K-562, Leukemia, five-dose
Method in brief: as §1

HOP-62 = settings: Homo sapiens; for inhibition at 10 µM: HOP-62 (Non-small cell lung cancer), read-out: GI%; for GI50: HOP-62, Non-small cell lung cancer, five-dose
Method in brief: as §1

SNB-75 = settings: Homo sapiens; for inhibition at 10 µM: SNB-75 (CNS cancer), read-out: GI%; for GI50: SNB-75, CNS cancer, five-dose
Method in brief: as §1

ACHN = settings: Homo sapiens; for inhibition at 10 µM: ACHN (Renal cancer), read-out: GI%; for GI50: ACHN, Renal cancer, five-dose
Method in brief: as §1

RPMI-8226 = settings: Homo sapiens; for inhibition at 10 µM: RPMI-8226 (Leukemia), read-out: GI%; for GI50: RPMI-8226, Leukemia, five-dose
Method in brief: as §1

SR = settings: Homo sapiens; for inhibition at 10 µM: SR (Leukemia), read-out: GI%; for GI50: SR, Leukemia, five-dose
Method in brief: as §1

TK-10 = settings: Homo sapiens; for inhibition at 10 µM: TK-10 (Renal cancer), read-out: GI%; for GI50: TK-10, Renal cancer, five-dose
Method in brief: as §1

786–0 = settings: Homo sapiens; for inhibition at 10 µM: 786–0 (Renal cancer), read-out: GI%; for GI50: 786–0, Renal cancer, five-dose
Method in brief: as §1

SN12C = settings: Homo sapiens; for GI50: SN12C, Renal cancer, five-dose
Method in brief: as §1

COLO 205 = settings: Homo sapiens; for inhibition at 10 µM: COLO 205 (Colon cancer), read-out: GI%; for GI50: COLO 205, Colon cancer, five-dose
Method in brief: as §1

NCI/ADR-RES = settings: Homo sapiens; for inhibition at 10 µM: NCI/ADR-RES (Ovarian cancer), read-out: GI%; for GI50: NCI/ADR-RES, Ovarian cancer, five-dose
Method in brief: as §1

SK-MEL-2 = settings: Homo sapiens; for inhibition at 10 µM: SK-MEL-2 (Melanoma), read-out: GI%; for GI50: SK-MEL-2, Melanoma, five-dose
Method in brief: as §1

SK-MEL-5 = settings: Homo sapiens; for inhibition at 10 µM: SK-MEL-5 (Melanoma), read-out: GI%; for GI50: SK-MEL-5, Melanoma, five-dose
Method in brief: as §1

EKVX = settings: Homo sapiens; for inhibition at 10 µM: EKVX (Non-small cell lung cancer), read-out: GI%; for GI50: EKVX, Non-small cell lung cancer, five-dose
Method in brief: as §1

Compound: COc1ccc(-c2nc3cc(C(=O)NN=Cc4cccc(OC)c4)ccc3[nH]2)cc1 [8j, N'-(3-Methoxybenzylidene)-2-(4-methoxyphenyl)-1H-benzo[d]imidazole-5-carbohydrazide]
- inhibition at 10 µM (MDA-MB-468): > 100%
- GI50 (MDA-MB-468): 3.06 µM
- inhibition at 10 µM (NCI-H522): 89.7%
- GI50 (NCI-H522): 3.3 µM
- inhibition at 10 µM (BT-549): 29.8%
- GI50 (BT-549): 5.47 µM
- inhibition at 10 µM (IGROV1): > 100%
- GI50 (IGROV1): 3.49 µM
- inhibition at 10 µM (HT29): > 100%
- GI50 (HT29): 2.8 µM
- inhibition at 10 µM (KM12): > 100%
- GI50 (KM12): 4.34 µM
- inhibition at 10 µM (SNB-19): > 100%
- GI50 (SNB-19): 3.18 µM
- inhibition at 10 µM (UACC-257): 57.7%
- GI50 (UACC-257): 11 µM
- inhibition at 10 µM (NCI-H23): > 100%
- GI50 (NCI-H23): 2.95 µM
- inhibition at 10 µM (SF-268): 84.7%
- GI50 (SF-268): 3.28 µM
- inhibition at 10 µM (NCI-H226): 98.3%
- GI50 (NCI-H226): 2.13 µM
- inhibition at 10 µM (MDA-MB-231/ATCC): > 100%
- GI50 (MDA-MB-231/ATCC): 2.43 µM
- inhibition at 10 µM (K-562): 88.1%
- GI50 (K-562): 6.92 µM
- inhibition at 10 µM (HOP-62): > 100%
- GI50 (HOP-62): 2.7 µM
- inhibition at 10 µM (SNB-75): > 100%
- GI50 (SNB-75): 1.78 µM
- inhibition at 10 µM (ACHN): > 100%
- GI50 (ACHN): 4.25 µM
- inhibition at 10 µM (RPMI-8226): > 100%
- GI50 (RPMI-8226): 4.14 µM
- inhibition at 10 µM (SR): 92.7%
- GI50 (SR): 10.6 µM
- inhibition at 10 µM (TK-10): > 100%
- GI50 (TK-10): 12.6 µM
- inhibition at 10 µM (786–0): > 100%
- GI50 (786–0): 3.84 µM
- GI50 (SN12C): 2.78 µM
- inhibition at 10 µM (COLO 205): > 100%
- GI50 (COLO 205): 4.3 µM
- inhibition at 10 µM (NCI/ADR-RES): 32%
- GI50 (NCI/ADR-RES): 6.35 µM
- inhibition at 10 µM (SK-MEL-2): 81%
- GI50 (SK-MEL-2): 10.6 µM
- inhibition at 10 µM (SK-MEL-5): > 100%
- GI50 (SK-MEL-5): 3.45 µM
- inhibition at 10 µM (EKVX): > 100%
- GI50 (EKVX): 2.76 µM

Compound: COc1ccc(-c2nc3cc(C(=O)NN=Cc4cccc(OC)c4O)ccc3[nH]2)cc1 [8k, N'-(2-Hydroxy-3-methoxybenzylidene)-2-(4-methoxyphenyl)-1H-benzo[d]imidazole-5-carbohydrazide]
- inhibition at 10 µM (MDA-MB-468): > 100%
- GI50 (MDA-MB-468): 1.95 µM
- inhibition at 10 µM (NCI-H522): > 100%
- GI50 (NCI-H522): 2.98 µM
- inhibition at 10 µM (BT-549): > 100%
- GI50 (BT-549): 2.85 µM
- inhibition at 10 µM (IGROV1): 84.8%
- GI50 (IGROV1): 3.52 µM
- inhibition at 10 µM (HT29): > 100%
- GI50 (HT29): 3.67 µM
- inhibition at 10 µM (KM12): > 100%
- GI50 (KM12): 2.45 µM
- inhibition at 10 µM (SNB-19): > 100%
- GI50 (SNB-19): 3.33 µM
- inhibition at 10 µM (UACC-257): > 100%
- GI50 (UACC-257): 3.43 µM
- inhibition at 10 µM (NCI-H23): > 100%
- GI50 (NCI-H23): 2.14 µM
- inhibition at 10 µM (SF-268): > 100%
- GI50 (SF-268): 2.16 µM
- inhibition at 10 µM (NCI-H226): 82.2%
- GI50 (NCI-H226): 3.14 µM
- inhibition at 10 µM (MDA-MB-231/ATCC): 97.7%
- GI50 (MDA-MB-231/ATCC): 2.8 µM
- inhibition at 10 µM (K-562): > 100%
- GI50 (K-562): 3.74 µM
- inhibition at 10 µM (HOP-62): > 100%
- GI50 (HOP-62): 3.11 µM
- inhibition at 10 µM (SNB-75): 91%
- GI50 (SNB-75): 3.05 µM
- inhibition at 10 µM (ACHN): 87.7%
- GI50 (ACHN): 4.19 µM
- inhibition at 10 µM (RPMI-8226): > 100%
- GI50 (RPMI-8226): 2.8 µM
- inhibition at 10 µM (SR): > 100%
- GI50 (SR): 2.06 µM
- inhibition at 10 µM (TK-10): 40%
- GI50 (TK-10): > 100 µM
- inhibition at 10 µM (786–0): > 100%
- GI50 (786–0): 3.69 µM
- GI50 (SN12C): 3.81 µM
- inhibition at 10 µM (COLO 205): > 100%
- GI50 (COLO 205): 3.94 µM
- inhibition at 10 µM (NCI/ADR-RES): 28.1%
- GI50 (NCI/ADR-RES): > 100 µM
- inhibition at 10 µM (SK-MEL-2): 39.1%
- GI50 (SK-MEL-2): 6.3 µM
- inhibition at 10 µM (SK-MEL-5): > 100%
- GI50 (SK-MEL-5): 2.86 µM
- inhibition at 10 µM (EKVX): 98.1%
- GI50 (EKVX): 2.3 µM

Compound: COc1ccc(-c2nc3cc(C(=O)NN=Cc4ccc(OC)c(O)c4)ccc3[nH]2)cc1 [8l, N'-(3-Hydroxy-4-methoxybenzylidene)-2-(4-methoxyphenyl)-1H-benzo[d]imidazole-5-carbohydrazide]
- inhibition at 10 µM (MDA-MB-468): 44.4%
- inhibition at 10 µM (NCI-H522): 38.2%
- inhibition at 10 µM (BT-549): 10.4%
- inhibition at 10 µM (IGROV1): 20.3%
- inhibition at 10 µM (HT29): > 100%
- inhibition at 10 µM (KM12): 34.5%
- inhibition at 10 µM (SNB-19): 16.1%
- inhibition at 10 µM (UACC-257): 52.9%
- inhibition at 10 µM (NCI-H23): 24%
- inhibition at 10 µM (SF-268): 40.4%
- inhibition at 10 µM (NCI-H226): 24.5%
- inhibition at 10 µM (MDA-MB-231/ATCC): 26.4%
- inhibition at 10 µM (K-562): 48.5%
- inhibition at 10 µM (HOP-62): 55.5%
- inhibition at 10 µM (SNB-75): 25.8%
- inhibition at 10 µM (ACHN): < 5%
- inhibition at 10 µM (RPMI-8226): 32.4%
- inhibition at 10 µM (SR): 72.2%
- inhibition at 10 µM (TK-10): < 5%
- inhibition at 10 µM (786–0): 18.1%
- inhibition at 10 µM (SN12C; SN12C (Renal cancer), 10 µM, read-out: GI%): 27%
- inhibition at 10 µM (COLO 205): 76.8%
- inhibition at 10 µM (NCI/ADR-RES): < 5%
- inhibition at 10 µM (SK-MEL-2): 25.8%
- inhibition at 10 µM (SK-MEL-5): 55.3%
- inhibition at 10 µM (EKVX): 12.9%
